Legend:
Hep3B cells [1] = conditions: literature study [20]; cited from earlier work
Hep3B cells [2] = assay: MTS cell viability assay, Hep3B cells; format: cell-based, Human; conditions: 48 hours
Protocol: (§1) Human hepatocellular cancer cell lines, HepG2 (HB-8065, ATCC), Hep3B (HB-8064, ATCC) and HUVEC (CRL-1730) cells are cultured in a growth medium (2 mM L-glutamine, 100 U/ml penicillin, 100 µg/ml streptomycin) of Dulbecco's modified Eagle's medium (DMEM) containing 10% heat inactivated FBS in a humidified atmosphere at 37° C. with 5% CO2. Cells are passaged at 3-day intervals.
(§2) (NaB: B5H10NaO13), Curcumin (Sigma, C1386), and Piperine (Sigma, P49007). At the end of 24, 48 and 72 hours, cell viability were measured. Cell viability assay was performed by 3-(4,5-di-methyl-thiazol-2-yl)-5-(3-carboxy-methoxy-phenyl)-2-(4-sulfo-phenyl)-2H-tetrazolium (MTS) method (CellTiter96 AqueousOne Solution; Promega, Southampton, UK) following the manufacturer's protocol. After 2 hours of incubation time, the cell viability assay is conducted by measuring at 490 nm using an ELISA microplate reader (Bio-tek ELx800, USA). IC50 value for 48 hours was calculated.
(§3) The combination index (CI) is used to determine the degree of drug interaction. The concentration of inhibition in the combination is the sum of the ratio of the dose of each drug to the dose of each drug used alone. […] The formalization is as follows:
(§4) [formula] • (Dx)1, (Dx)2: Individual IC50 values of the substances • (D)1, (D)2: Concentrations of substances in the combination

HepG2 cells = assay: MTS cell viability assay, HepG2 cells; format: cell-based, Human; conditions: 48 hours
Protocol: as §1, §2, §3, §4

sodium pentaborate pentahydrate
proliferation of Hep3B cells (Hep3B cells [1]): decreased the proliferation of Hep3B cells | IC50 (Hep3B cells [2]): 6560 µM | IC50 (HepG2 cells): 7660 µM

COc1cc(/C=C/C(=O)CC(=O)/C=C/c2ccc(O)c(OC)c2)ccc1O [curcumin]
IC50 (Hep3B cells [2]; Homo sapiens): 41.4 µM | IC50 (HepG2 cells; Homo sapiens): 44.8 µM

O=C(/C=C/C=C/c1ccc2c(c1)OCO2)N1CCCCC1 [piperine]
IC50 (Hep3B cells [2]; Homo sapiens): > 150 µM | IC50 (HepG2 cells; Homo sapiens): > 150 µM
